# Reference: US12285407B2, “Bis-indolylmethane derivatives and uses thereof” (The University of The West Indies, priority 2018, dated 2025)
# Like-named read-outs stand apart in the source and are kept apart here.
# What was measured:
# [1] = tested on: clinical antibiotic resistant isolates of MRSA; test: Checkerboard resistance breaking by SP-BIM 13; type: cell-based, Staphylococcus aureus; settings: for FIC antibiotic: combination with SP-BIM 13; for MIC of antibiotic in combination: with SP-BIM 13 at rescue concentration; for FIC compound / Rescue concentration of SP-BIM 13: SP-BIM 13 with the labelled antibiotic; for Interpretation / Σ FIC: antibiotic + SP-BIM 13; for MIC of antibiotic only: antibiotic alone
# Escherichia coli [2] = test: microbe, parasite or virus in culture; type: cell-based; settings: antibiotic alone, Table 6, read-out: MIC of antibiotic, No compound
# Escherichia coli [3] = test: Checkerboard synergy (FICI) of antibiotics with SP-BIM; set-up: MIC SP-BIM 13 only / MIC in combination: Antibiotic: unit not given beside the values; settings: for MIC: 24 h
# Streptococcus pneumoniae = test: Adjuvant broth microdilution (antibiotic MIC with SP-BIM at 50 μg/mL); type: cell-based; settings: Streptococcus pneumoniae; Streptococcus pneumonia; antibiotic alone; Table 5; read-out: MIC of antibiotic, No compound
# Enterococcus faecium = test: Checkerboard synergy (FICI) of antibiotics with SP-BIM; type: cell-based; settings: Enterococcus faecium, Enterococcus faecium; for MIC: 24 h, antibiotic alone, read-out: MIC antibiotic only
# Bacillus cereus = test: as above; type: cell-based; settings: for MIC: 24 h, antibiotic alone, read-out: MIC antibiotic only
# [4] = SP-BIM 9 in combination with the labelled antibiotic
# [5] = SP-BIM 13 in combination with the labelled antibiotic
# [6] = antibiotic in combination with SP-BIM 9
# [7] = SP-BIM 9 concentration in combination with the labelled antibiotic
# [8] = antibiotic in combination with SP-BIM 13
compound,measurement,setting,value
"[H]/N=C(/N)N[C@H]1[C@H](O)[C@@H](O)[C@H](O[C@@H]2O[C@@H](C)[C@](O)(C=O)[C@H]2O[C@@H]2O[C@@H](CO)[C@H](O)[C@@H](O)[C@@H]2NC)[C@@H](N/C(N)=N\[H])[C@@H]1O [Streptomycin, streptomycin]",FIC antibiotic,[1]; MRSA strain 1594,0.127
same,MIC of antibiotic in combination,[1]; MRSA strain 1594,8 µg/mL
same,FIC compound,[1]; MRSA strain 5872,0.064
same,Rescue concentration of SP-BIM 13,[1]; MRSA strain 5872,16 µg/mL
same,Interpretation,[1]; MRSA strain 5872,Synergy (Synergy: FICI≤0.5)
same,Σ FIC,[1]; MRSA strain 5872,<0.07
same,MIC of antibiotic only,[1]; MRSA strain 5872,125 µg/mL
same,FIC antibiotic,[1]; MRSA strain 5872,0.004
same,MIC of antibiotic in combination,[1]; MRSA strain 5872,0.5 µg/mL
same,FIC compound,[1]; MRSA strain 7153,0.064
same,Rescue concentration of SP-BIM 13,[1]; MRSA strain 7153,16 µg/mL
same,Interpretation,[1]; MRSA strain 7153,Synergy (Synergy: FICI≤0.5)
same,Σ FIC,[1]; MRSA strain 7153,<0.08
same,MIC of antibiotic only,[1]; MRSA strain 7153,63 µg/mL
same,FIC antibiotic,[1]; MRSA strain 7153,0.016
same,MIC of antibiotic in combination,[1]; MRSA strain 7153,1 µg/mL
same,FIC compound,[1]; MRSA strain 7698,0.032
same,Rescue concentration of SP-BIM 13,[1]; MRSA strain 7698,8 µg/mL
same,Interpretation,[1]; MRSA strain 7698,Synergy (Synergy: FICI≤0.5)
same,Σ FIC,[1]; MRSA strain 7698,<0.05
same,MIC of antibiotic only,[1]; MRSA strain 7698,125 µg/mL
same,FIC antibiotic,[1]; MRSA strain 7698,0.016
same,MIC of antibiotic in combination,[1]; MRSA strain 7698,2 µg/mL
same,FIC compound,[1]; MRSA strain 10132,0.064
same,Rescue concentration of SP-BIM 13,[1]; MRSA strain 10132,16 µg/mL
same,Interpretation,[1]; MRSA strain 10132,Synergy (Synergy: FICI≤0.5)
same,Σ FIC,[1]; MRSA strain 10132,<0.07
same,MIC of antibiotic only,[1]; MRSA strain 10132,63 µg/mL
same,FIC antibiotic,[1]; MRSA strain 10132,0.008
same,MIC of antibiotic in combination,[1]; MRSA strain 10132,0.5 µg/mL
same,MIC,Escherichia coli [2],8 µg/mL
same,MIC,"Escherichia coli [3]; read-out: MIC antibiotic only, Escherichia coli, antibiotic alone",125 µg/mL
same,MIC,"Escherichia coli [3]; read-out: MIC antibiotic only, Escherichia coli, antibiotic alone, SP-BIM 9 checkerboard",125 µg/mL
same,MIC in combination: Antibiotic,Escherichia coli [3]; MIC of the antibiotic in combination with SP-BIM 13,4
same,FIC of SP-BIM 9,Escherichia coli [3]; [4],1
same,FIC of SP-BIM 13,Escherichia coli [3]; [5],0.3
same,Interpretation,Escherichia coli [3]; antibiotic + SP-BIM 9,Indifferent (Indifferent: FICI>1.0-4.0)
same,Σ FIC,Escherichia coli [3]; antibiotic + SP-BIM 9,<1.1
same,Interpretation,Escherichia coli [3]; antibiotic + SP-BIM 13,Synergy (Synergy: FICI≤0.5)
same,Σ FIC,Escherichia coli [3]; antibiotic + SP-BIM 13,<0.3
same,"MIC in combination, Antibiotic",Escherichia coli [3]; [6],8 µg/mL
same,FIC of antibiotic,Escherichia coli [3]; combination with SP-BIM 13,0.0
same,FIC of antibiotic,Escherichia coli [3]; in combination with SP-BIM 9,0.064
same,MIC,Streptococcus pneumoniae,16 µg/mL
same,MIC,Enterococcus faecium; SP-BIM 9 checkerboard,32 µg/mL
same,MIC,Enterococcus faecium; SP-BIM 13 checkerboard,32 µg/mL
same,"MIC in combination, SP-BIM 9",Enterococcus faecium; [7],16 µg/mL
same,FIC of SP-BIM 9,Enterococcus faecium; [4],0.1
same,FIC of SP-BIM 13,Enterococcus faecium; [5],0.5
same,Interpretation,Enterococcus faecium; antibiotic + SP-BIM 9,Synergy (Synergy: FICI≤0.5)
same,Σ FIC,Enterococcus faecium; antibiotic + SP-BIM 9,≤0.3
same,Interpretation,Enterococcus faecium; antibiotic + SP-BIM 13,Additive (Additive: FICI>0.5-1.0)
same,Σ FIC,Enterococcus faecium; antibiotic + SP-BIM 13,0.6
same,"MIC in combination, Antibiotic",Enterococcus faecium; [6],8 µg/mL
same,"MIC in combination, Antibiotic",Enterococcus faecium; [8],4 µg/mL
same,FIC of antibiotic,Enterococcus faecium; in combination with SP-BIM 9,0.3
same,FIC of antibiotic,Enterococcus faecium; in combination with SP-BIM 13,0.1
same,MIC,Bacillus cereus; SP-BIM 9 checkerboard,4 µg/mL
same,MIC,Bacillus cereus; SP-BIM 13 checkerboard,4 µg/mL
same,"MIC in combination, SP-BIM 9",Bacillus cereus; [7],>250 µg/mL
same,FIC of SP-BIM 9,Bacillus cereus; [4],1
same,FIC of SP-BIM 13,Bacillus cereus; [5],0.1
same,Interpretation,Bacillus cereus; antibiotic + SP-BIM 9,Synergy (Synergy: FICI≤0.5)
same,Σ FIC,Bacillus cereus; antibiotic + SP-BIM 9,<1.1
same,Interpretation,Bacillus cereus; antibiotic + SP-BIM 13,Synergy (Synergy: FICI≤0.5)
same,Σ FIC,Bacillus cereus; antibiotic + SP-BIM 13,<0.3
same,"MIC in combination, Antibiotic",Bacillus cereus; [6],0.5 µg/mL
same,"MIC in combination, Antibiotic",Bacillus cereus; [8],0.5 µg/mL
same,FIC of antibiotic,Bacillus cereus; in combination with SP-BIM 9,0.125
same,FIC of antibiotic,Bacillus cereus; in combination with SP-BIM 13,0.13
